Measured values taken from patent publication US9266905B2, “Color material and method for producing the same” (DAI NIPPON PRINTING CO., LTD., priority 2011, dated 2016).

Tests used:
[1] = Measurement of thermal stability (weight reduction rate, TG-DTA); format: physicochemical; settings: heated to 230° C. at 10° C./minute, kept 60 minutes at 230° C.
Protocol: About 5 mg of each of color materials A to S of Examples 1 to 9 and Comparative examples 1 to 10, was put in a quartz pan and heated up to 230° C. at a heating rate of 10° C./minute, placing alumina on the quartz pan as a reference, by means of a differential thermogravimetric analyzer (TG-DTA) (product name; TG8120; manufactured by: Rigaku Corporation). After reaching 230° C., the temperature was kept for 60 minutes at 230° C. Then, a weight reduction rate was measured. The weight reduction rate was calculated by the following formula and can be used as an indicator of heat resistance. Weight reduction rate=(weight before heating−weight after heating)/weight before heating×100(%)

[2] = Measurement of decomposition point (TG-DTA); format: physicochemical; settings: TG-DTA up to 800° C. at 10° C./minute, extrapolation temperature of the peak of the TG curve
Protocol: About 5 mg of each of color materials A to S of Examples 1 to 9 and Comparative examples 1 to 10, was put in a quartz pan, and measured by means of a differential thermogravimetric analyzer (TG-DTA) (product name; TG8120; manufactured by: Rigaku Corporation) up to 800° C. at a heating rate of 10° C./minute, placing alumina on the quartz pan as a reference. The extrapolation temperature of the peak of the thus-obtained TG curve was used as the decomposition point. The temperature of the decomposition point can be used as an indicator of heat resistance.

CCN(CC)c1ccc(C(=C2C=CC(=[N+](CC)CC)C=C2)c2ccc(NCc3ccc(CNc4ccc(C(=C5C=CC(=[N+](CC)CC)C=C5)c5ccc(N(CC)CC)cc5)c5ccccc45)cc3)c3ccccc23)cc1 [Color material A]
Weight reduction rate ([1]; listed as A): −19.1%
Decomposition point ([2]; listed as A): 253 °C

CCN(CC)c1ccc(C(=C2C=CC(=[N+](CC)CC)C=C2)c2ccc(NCc3ccc(CNc4ccc(C(=C5C=CC(=[N+](CC)CC)C=C5)c5ccc(N(CC)CC)cc5)c5ccccc45)cc3)c3ccccc23)cc1 [Color material B]
Weight reduction rate ([1]; listed as B): −10.7%
Decomposition point ([2]; listed as B): 258 °C

CCN(CC)c1ccc(C(=C2C=CC(=[N+](CC)CC)C=C2)c2ccc(NCc3ccc(CNc4ccc(C(=C5C=CC(=[N+](CC)CC)C=C5)c5ccc(N(CC)CC)cc5)c5ccccc45)cc3)c3ccccc23)cc1 [Color material J]
Weight reduction rate ([1]; listed as J): −35.1%
Decomposition point ([2]; listed as J): 248 °C

CCNc1ccc(C(=C2C=CC(=[N+](CC)CC)C=C2)c2ccc(N(CC)CC)cc2)c2ccccc12 [Color material K]
Weight reduction rate ([1]; listed as K): −32.8%
Decomposition point ([2]; listed as K): 237 °C

CCNc1ccc(C(=C2C=CC(=[N+](CC)CC)C=C2)c2ccc(N(CC)CC)cc2)c2ccccc12 [Color material L]
Weight reduction rate ([1]; listed as L): −31.8%
Decomposition point ([2]; listed as L): 241 °C

CCNc1ccc(C(=C2C=CC(=[N+](CC)CC)C=C2)c2ccc(N(CC)CC)cc2)c2ccccc12 [Color material N]
Weight reduction rate ([1]; listed as N): −38.3%
Decomposition point ([2]; listed as N): 251 °C

CCNc1ccc(C(=C2C=CC(=[N+](CC)CC)C=C2)c2ccc(N(CC)CC)cc2)c2ccccc12 [Color material Q]
Weight reduction rate ([1]; listed as Q): −30.1%
Decomposition point ([2]; listed as Q): 258 °C

CCNc1ccc(C(=C2C=CC(=[N+](CC)CC)C=C2)c2ccc(N(CC)CC)cc2)c2ccccc12 [Color material R]
Weight reduction rate ([1]; listed as R): −30.5%
Decomposition point ([2]; listed as R): 259 °C
